# Residue numbers refer to the chain shown, from its start. Where two headings read alike, the source gives them in different places.
# Columns and labels:
# mouse TRPA1 = target: T1, mouse TRPA1 (Mus musculus, UniProt Q8BLA8); conditions: HEK 293 cells transfected with mouse TRPA1; cited from earlier work
# T1 construct: expressed in transfected cells; host or cells: HEK 293
# mice = conditions: low dose into the hind paws; zero degree cold plate; vehicle 125 seconds; cited from earlier work
# TRPA1 [1] = conditions: low level of 4-HNE; 25 degrees C. to 10 degrees; cited from earlier work
# TRPA1 [2] = target: TRPA1 (Homo sapiens, UniProt O75762); assay: TRPA1 agonist activity
# Sequence of TRPA1 (Homo sapiens, UniProt O75762) (O75762 whole entry, species assumed): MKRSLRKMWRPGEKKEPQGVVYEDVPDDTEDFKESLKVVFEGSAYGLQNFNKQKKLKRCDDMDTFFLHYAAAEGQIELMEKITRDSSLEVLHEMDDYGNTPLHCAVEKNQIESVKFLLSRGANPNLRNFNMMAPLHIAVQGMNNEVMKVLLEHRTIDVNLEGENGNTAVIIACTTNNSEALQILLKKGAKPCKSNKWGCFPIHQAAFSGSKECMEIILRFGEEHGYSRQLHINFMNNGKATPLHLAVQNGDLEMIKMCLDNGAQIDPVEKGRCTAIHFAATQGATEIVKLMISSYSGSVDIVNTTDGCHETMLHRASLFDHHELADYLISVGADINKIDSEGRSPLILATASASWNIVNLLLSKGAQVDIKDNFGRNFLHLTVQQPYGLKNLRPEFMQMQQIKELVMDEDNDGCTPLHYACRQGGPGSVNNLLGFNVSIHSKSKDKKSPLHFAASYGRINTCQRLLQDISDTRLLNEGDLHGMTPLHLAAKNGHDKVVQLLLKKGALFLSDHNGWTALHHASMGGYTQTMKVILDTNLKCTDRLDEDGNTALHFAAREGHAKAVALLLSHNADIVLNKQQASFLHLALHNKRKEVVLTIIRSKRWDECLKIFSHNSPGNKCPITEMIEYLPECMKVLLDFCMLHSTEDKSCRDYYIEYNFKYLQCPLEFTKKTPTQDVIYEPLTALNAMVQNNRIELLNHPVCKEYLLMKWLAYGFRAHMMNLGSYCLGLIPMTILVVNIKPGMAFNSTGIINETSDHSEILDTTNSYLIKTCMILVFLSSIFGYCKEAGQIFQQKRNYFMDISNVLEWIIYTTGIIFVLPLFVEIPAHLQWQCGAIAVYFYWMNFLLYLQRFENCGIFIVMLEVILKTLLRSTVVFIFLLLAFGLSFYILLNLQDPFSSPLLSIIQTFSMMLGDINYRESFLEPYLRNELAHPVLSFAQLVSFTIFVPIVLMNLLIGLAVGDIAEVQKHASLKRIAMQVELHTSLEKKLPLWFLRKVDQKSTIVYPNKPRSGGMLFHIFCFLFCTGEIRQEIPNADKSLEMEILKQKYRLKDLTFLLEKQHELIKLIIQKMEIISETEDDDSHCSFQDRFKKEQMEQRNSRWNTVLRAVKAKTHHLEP
# ALDH2*2 = target: T2, ALDH2*2 (Homo sapiens, UniProt P05091, E504K); conditions: [Chen, 2008]; cited from earlier work
# T2 sequence (P05091 18-517 E504K): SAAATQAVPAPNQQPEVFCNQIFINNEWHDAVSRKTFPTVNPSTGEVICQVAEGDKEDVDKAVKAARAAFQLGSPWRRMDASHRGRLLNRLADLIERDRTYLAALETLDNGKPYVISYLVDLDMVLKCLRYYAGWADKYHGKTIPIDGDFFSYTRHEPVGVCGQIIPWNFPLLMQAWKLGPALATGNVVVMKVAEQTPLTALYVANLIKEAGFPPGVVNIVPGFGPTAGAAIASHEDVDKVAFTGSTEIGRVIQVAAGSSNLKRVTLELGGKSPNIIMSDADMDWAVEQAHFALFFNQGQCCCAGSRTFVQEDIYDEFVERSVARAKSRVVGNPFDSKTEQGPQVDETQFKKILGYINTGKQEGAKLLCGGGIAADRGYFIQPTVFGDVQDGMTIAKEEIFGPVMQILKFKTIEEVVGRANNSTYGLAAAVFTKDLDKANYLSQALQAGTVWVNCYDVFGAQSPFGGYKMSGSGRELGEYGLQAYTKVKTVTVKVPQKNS
# ALDH2*1 = target: T3, ALDH2*1 (Homo sapiens, UniProt P05091); conditions: [Perez-Miller, 2010]; cited from earlier work
# T3 sequence (P05091 18-517): T2 sequence (P05091 18-517 E504K) with K487E
# [3] = test system: wild-type and mutant mice; conditions: 10 to 40 minutes; formalin (2% aqueous formaldehyde) into the paw; both wild-type and mutant mice; cited from earlier work
# ALDH2*1/*2 mice = conditions: 1.2 g stimulus level, 3 hours after carrageenan; cited from earlier work
# [4] = Computed Log P (PubChem, XLogP3-AA algorithm); conditions: worked out from Log P
# Description: Partition coefficient; Log P: The ratio of the concentrations of a solute between two solvents. When one of the solvents is non-polar and the other is water, this is a measure of lipophilicity and the logarithm of the ratio is Log P. Unless otherwise specified, the Log P values reported herein are from the National Library of Medicine “PubChem” database (which uses the XLogP3-AA algorithm for Log P determination).
# chronic pain = assay: Self-reports of voluntary evaluators taking Protein-Allium (10 point pain scale, symptoms, side effects)
# Description: On a 10 point pain scale the pain level was 10.
# On a 10 point pain scale, the pain level was 10.
# [5] = test system: formaldehyde induced pain and toxicity; conditions: [Bai, 2012], [Song, 2010]; cited from earlier work
# [6] = test system: ALDH2*1/*2 mutant and wild-type mice; conditions: cited from earlier work; for licking or flinching: 100 ng into a rear paw
# male rats = conditions: 5 day course started 10 days after chronic constriction injury; cited from earlier work
# [7] = test system: glutathione content of cells; conditions: daily dosage of 1000 mg; patients; cited from earlier work
# T1 sequence (Q8BLA8 whole entry): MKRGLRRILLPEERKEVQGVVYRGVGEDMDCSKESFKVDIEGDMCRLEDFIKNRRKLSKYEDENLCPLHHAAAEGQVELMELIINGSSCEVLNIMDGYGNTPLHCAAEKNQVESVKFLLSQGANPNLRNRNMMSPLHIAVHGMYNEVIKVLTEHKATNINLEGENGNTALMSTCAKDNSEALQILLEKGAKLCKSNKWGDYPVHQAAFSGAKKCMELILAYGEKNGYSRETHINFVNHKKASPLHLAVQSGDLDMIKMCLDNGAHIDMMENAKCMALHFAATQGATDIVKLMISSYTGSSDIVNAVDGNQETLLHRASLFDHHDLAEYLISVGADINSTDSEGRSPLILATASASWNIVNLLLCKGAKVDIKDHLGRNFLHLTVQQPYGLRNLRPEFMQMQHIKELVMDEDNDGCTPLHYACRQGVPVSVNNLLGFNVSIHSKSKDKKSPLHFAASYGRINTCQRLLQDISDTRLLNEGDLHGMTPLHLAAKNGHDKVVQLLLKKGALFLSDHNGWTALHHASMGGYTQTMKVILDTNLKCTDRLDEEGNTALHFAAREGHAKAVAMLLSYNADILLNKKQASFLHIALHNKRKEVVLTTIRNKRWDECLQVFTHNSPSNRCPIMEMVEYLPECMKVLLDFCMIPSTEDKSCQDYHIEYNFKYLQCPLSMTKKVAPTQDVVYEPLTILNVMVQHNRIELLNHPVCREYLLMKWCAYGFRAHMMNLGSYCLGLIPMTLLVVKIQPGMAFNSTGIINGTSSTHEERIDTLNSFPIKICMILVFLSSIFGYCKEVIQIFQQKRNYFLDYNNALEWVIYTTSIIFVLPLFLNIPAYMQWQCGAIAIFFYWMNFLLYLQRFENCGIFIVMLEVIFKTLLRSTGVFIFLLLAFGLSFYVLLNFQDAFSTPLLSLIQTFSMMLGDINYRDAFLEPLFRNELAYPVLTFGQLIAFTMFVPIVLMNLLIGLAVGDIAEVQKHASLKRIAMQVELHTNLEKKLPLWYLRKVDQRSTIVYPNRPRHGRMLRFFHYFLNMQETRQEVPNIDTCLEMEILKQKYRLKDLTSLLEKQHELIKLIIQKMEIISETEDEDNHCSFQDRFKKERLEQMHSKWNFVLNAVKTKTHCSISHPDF
compound,measurement,setting,value
O[C@H](CS)[C@H](O)CS (racemic) [dithiothreitol],effect on H2O2-induced Ca^2+ increase,mouse TRPA1,markedly decreased
"c1ccc(SSc2ccccn2)nc1 [2,2′-dipyridyl disulfide]",intracellular Ca^2+,mouse TRPA1,increased intracellular Ca^2+ in a dose-dependent manner
"CCCCCC(O)C=CC=O (centres unmarked) [4-hydroxy-2-nonenal (4-HNE), 4-hydroxy-2-nonenal]",time to first jump,mice,20 s
same,potentiation of current flow by lowering the temperature,TRPA1 [1],3 factor
CCCCC/C=C/C=C1/C(=O)C=C[C@@H]1C/C=C\CCCC(=O)O [15d-PGJ2],more active than 4-HNE,TRPA1 [2],~10
O=C(NCc1ccc2c(c1)OCO2)c1c(Cl)cccc1Cl [Alda-1],increase of the activity of ALDH2*2,ALDH2*2,2.2 fold
same,efficiency of ALDH2*1,ALDH2*1,doubles
same,decrease of early second phase pain response,[3],~60%
same,less sensitive to mechanical pain than wild-type mice without treatment,ALDH2*1/*2 mice,~30%
C=CCSSCC=C [Diallyl disulfide],concentration on the oily (lipid) side relative to the aqueous side,[4],about 160 times
NCC1(CC(=O)O)CCCCC1 [Gabapentin],side effects,chronic pain; self-report,bad side effects (drowsiness)
same,"muscle memory (residual pain), shoulder neuropathy",chronic pain; subject two,always had muscle memory of the pain
"N[C@@H](CCS)C(=O)O [Homocysteine, (S)-2-Amino-4-mercaptobutyric acid]",more hydrophilic than cysteine,[4],~10 ×
COc1ccc2cc([C@H](C)C(=O)O)ccc2c1 [Naprosyn],"pain level, adenomyosis","chronic pain; 10-point pain scale, subject two",4
NNCCc1ccccc1 [Phenelzine],reducing formaldehyde induced pain and toxicity,[5],effective
"CCCS [Propyl mercaptan, 1-PropaneThiol]",concentration on the oily (lipid) side relative to the aqueous side,[4],about 65 times
CC=O [acetylaldehyde],licking or flinching,[6]; mutant mice,5 s
same,licking or flinching,[6]; wild-type mice,4 s
same,mutant mice more sensitive to pressure (nociceptive threshold),"[6]; after injection, mutant vs wild-type mice",4 times
CC12CCC(CC1=O)C2(C)C (centres unmarked) [camphor],effect on H2O2-induced Ca^2+ increase,mouse TRPA1,prevents
C[C@]12CCC(=O)C=C1CC[C@@H]1[C@@H]2C(=O)C[C@@]2(C)[C@H]1CC[C@]2(O)C(=O)CO [cortisone],benefit on back pain,"chronic pain; injection, subject one",minimal benefit
"N[C@@H](CS)C(=O)O [cysteine, (R)-2-Amino-3-mercaptopropanoic acid]",partitions into water vs. oil,[4],~300 to 1
"CCCSSCCC [disulfide from propyl mercaptan, dipropyl disulfide]",concentration on the oily (lipid) side relative to the aqueous side,[4],about 500 times
CN1CC[C@]23c4c5ccc(O)c4O[C@H]2[C@@H](O)C=C[C@H]3[C@H]1C5 [morphine],duration of injury-related allodynia,male rats,more than doubling
O=C1O[C@H]([C@@H](O)CO)C(O)=C1O [vitamin C],mean percentage decrease of glutathione,[7],60%
catalase,effect on H2O2-induced Ca^2+ increase,mouse TRPA1,abolished
